Converted amounts (≈) assume the structure as drawn.
What was measured:
Mus musculus = species on record: Mus musculus; experiment: Ratio of number of mice that survived after 50 days among eight mice tested; format: functional
[1] = Cytotoxicity against L-1210 cells; format: cell-based, L1210; conditions: mouse, read-out: ED50 (the source's name)
[2] = Antitumor activity against S-180 cells after i.p. administration in mice up to 7 days at a dose of 16 umol/kg; format: functional, Mus musculus

Row | Compound | Survival ratio (Mus musculus) | CC50 [1] | T/C [2]
1 | CCC(OC(=O)C(Cc1ccc(N(CCCl)CCCl)cc1)NC=O)c1cc(O)c2c(c1O)C(=O)c1ccccc1C2=O (stereo not drawn) | 3 | 0.2 µg/mL (≈ 0.326 µM) | 245%
2 | CCCCC(OC(=O)C(Cc1ccc(N(CCCl)CCCl)cc1)NC=O)c1cc(O)c2c(c1O)C(=O)c1ccccc1C2=O (stereo not drawn) | 2 | 0.4 µg/mL (≈ 0.623 µM) | 230%
3 | CCCCCC(O)c1cc(O)c2c(c1O)C(=O)c1ccccc1C2=O (stereo not drawn) |  | 58 µg/mL (≈ 170 µM) | 108%
4 | CCCC(O)c1cc(O)c2c(c1O)C(=O)c1ccccc1C2=O (stereo not drawn) |  | 10.2 µg/mL (≈ 32.7 µM) | 125%
5 | CCCCC(O)c1cc(O)c2c(c1O)C(=O)c1ccccc1C2=O (stereo not drawn) |  | 23.7 µg/mL (≈ 72.6 µM) | 110%
6 | CCC(O)c1cc(O)c2c(c1O)C(=O)c1ccccc1C2=O (stereo not drawn) |  | 7.2 µg/mL (≈ 24.1 µM) | 135%
7 | O=CNC(Cc1ccc(N(CCCl)CCCl)cc1)C(=O)OCc1cc(O)c2c(c1O)C(=O)c1ccccc1C2=O (stereo not drawn) | 3 | 0.086 µg/mL (≈ 0.147 µM) | 265%
8 | O=C1c2ccccc2C(=O)c2c(O)c(CO)cc(O)c21 |  | 15 µg/mL (≈ 55.5 µM) | 125%
9 | CC(O)c1cc(O)c2c(c1O)C(=O)c1ccccc1C2=O (stereo not drawn) |  | 1.9 µg/mL (≈ 6.68 µM) | 139%
10 | CCCCCC(OC(=O)C(Cc1ccc(N(CCCl)CCCl)cc1)NC=O)c1cc(O)c2c(c1O)C(=O)c1ccccc1C2=O (stereo not drawn) | 1 | 3.1 µg/mL (≈ 4.73 µM) | 230%
11 | CCCCCCC(O)c1cc(O)c2c(c1O)C(=O)c1ccccc1C2=O (stereo not drawn) |  | 60 µg/mL (≈ 169 µM) | 115%
12 | CCCCCCCC(O)c1cc(O)c2c(c1O)C(=O)c1ccccc1C2=O (stereo not drawn) |  | 80 µg/mL (≈ 217 µM) | 103%
13 | CC(OC(=O)C(Cc1ccc(N(CCCl)CCCl)cc1)NC=O)c1cc(O)c2c(c1O)C(=O)c1ccccc1C2=O (stereo not drawn) | 6 | 0.12 µg/mL (≈ 0.2 µM) | 272%
14 | CCCC(OC(=O)C(Cc1ccc(N(CCCl)CCCl)cc1)NC=O)c1cc(O)c2c(c1O)C(=O)c1ccccc1C2=O (stereo not drawn) | 3 | 0.97 µg/mL (≈ 1.55 µM) | 240%
15 | CCCCCCC(OC(=O)C(Cc1ccc(N(CCCl)CCCl)cc1)NC=O)c1cc(O)c2c(c1O)C(=O)c1ccccc1C2=O (stereo not drawn) | 0 | 4.5 µg/mL (≈ 6.72 µM) | 210%
16 | CCCCCCCC(OC(=O)C(Cc1ccc(N(CCCl)CCCl)cc1)NC=O)c1cc(O)c2c(c1O)C(=O)c1ccccc1C2=O (stereo not drawn) | 0 | 5.9 µg/mL (≈ 8.63 µM) | 205%
17 | N[C@@H](Cc1ccc(N(CCCl)CCCl)cc1)C(=O)O [MELPHALAN] | 3 | 0.89 µg/mL (≈ 2.92 µM) | 225%

Source: ChEMBL document CHEMBL1134090, “Esters of 2-(1-hydroxyalkyl)-1,4-dihydroxy-9,10-anthraquinones with melphalan as multifunctional anticancer agents” (Bioorg Med Chem Lett, 2001)
